From the NIST ThermoML archive (doi:10.1016/j.fluid.2006.01.017)
± gives the expanded uncertainty stated by the source.

Legend:
[1] = refractive index (Na D-line) (dimensionless); conditions: 293.2 K; 101.33 kPa; Liquid; Standard Abbe refractometry
[2] = 293.2 K; 101.33 kPa; Liquid

Row | refractive index [1] | mass density [2] [kg/m3] | SMILES
1 | 1.36 ± 0.0004 |  | CCO [ethanol]
2 | 1.3702 ± 0.0004 | 900.6 ± 0.3 | CCOC(C)=O [ethyl acetate]
